According to patent US20240059703A1 (AMGEN INC., priority 2021, published 2024):

Molecular target: KRAS G12C (Homo sapiens (Human), UniProt P01116, C118A/G12C)
Assay: 2 h coupled exchange assay
Format: biochemical
Settings: Avg 2 h Coupled exchange IC50, 2 h compound pre-incubation
Procedure: The term “2 h coupled exchange assay” or “20 h coupled exchange assay” as used herein refers to the assay described in the Section entitled “BIOLOGICAL EVALUATION.”

[1] = SOS-mediated nucleotide exchange

KRAS G12C, sequence (P01116 other isoform, or with tags, fused parts or gaps G12C/C118A): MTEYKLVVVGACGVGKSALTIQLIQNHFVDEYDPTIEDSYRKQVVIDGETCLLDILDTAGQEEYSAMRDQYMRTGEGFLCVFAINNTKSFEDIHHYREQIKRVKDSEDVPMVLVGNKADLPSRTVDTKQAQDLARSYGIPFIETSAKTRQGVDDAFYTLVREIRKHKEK

SMILES	IC50 [1] [nM]	IC50 [nM]
C=CC(=O)N1CC2(CCN(c3nc4c(c(-c5c(C)ccc6[nH]ncc56)c3C#N)OC3(COC3)C4)C2)C1 [Example 13-107, 7-(5-methyl-1H-indazol-4-yl)-5-(2-(2-propenoyl)-2,6-diazaspiro[3.4]octan-6-yl)-3H-spiro[furo[3,2-b]pyridin-2,3′-oxetane]-6-carbonitrile]	702	–
C=CC(=O)N1CC2(CCN(c3nc4c(c(-c5cnccc5C)c3C#N)C[C@H]3C[C@@H]4C3(C)C)C2)C1 [Example 13-109, (1R,9R)-10,10-dimethyl-6-(4-methyl-3-pyridinyl)-4-(2-(2-propenoyl)-2,6-diazaspiro[3.4]octan-6-yl)-3-azatricyclo[7.1.1.0^2,7]undeca-2,4,6-triene-5-carbonitrile]	1110	–
C=CC(=O)N1CC2(CCN(c3nc4ccccc4c(-c4c(C)ccc5[nH]nc(Cl)c45)c3C#N)C2)C1 [Example 14-3, 4-(3-chloro-5-methyl-1H-indazol-4-yl)-2-(2-(2-propenoyl)-2,6-diazaspiro[3.4]octan-6-yl)-3-quinolinecarbonitrile]	588	–
C=CC(=O)N1CC2(CCN(c3nc4c(c(-c5cccc6cc[nH]c56)c3C#N)C[C@H]3C[C@@H]4C3(C)C)C2)C1 [Example 14-22, (1R,9R)-6-(1H-indol-7-yl)-10,10-dimethyl-4-(2-(2-propenoyl)-2,6-diazaspiro[3.4]octan-6-yl)-3-azatricyclo[7.1.1.0^2,7]undeca-2,4,6-triene-5-carbonitrile]	–	606
C=CC(=O)N1CC2(CCN(c3nc4c(c(-c5cccc6c5cnn6C)c3C#N)C[C@H]3C[C@@H]4C3(C)C)C2)C1 [Example 14-24, (1R,9R)-10,10-dimethyl-6-(1-methyl-1H-indazol-4-yl)-4-(2-(2-propenoyl)-2,6-diazaspiro[3.4]octan-6-yl)-3-azatricyclo[7.1.1.0^2,7]undeca-2,4,6-triene-5-carbonitrile]	–	506
C=CC(=O)N1CC2(CCN(c3nc4c(c(-c5ccc(F)c6sc(N)nc56)c3C)COC(C)(C)C4)C2)C1 [Example 14-27, 1-(6-(4-(2-amino-7-fluoro-1,3-benzothiazol-4-yl)-3,7,7-trimethyl-7,8-dihydro-5H-pyrano[4,3-b]pyridin-2-yl)-2,6-diazaspiro[3.4]octan-2-yl)-2-propen-1-one]	–	164
C=CC(=O)N1CC2(CCN(c3nc4c(c(-c5cc(O)ccc5C)c3C)COC(C)(C)C4)C2)C1 [Example 14-30, 1-(6-(4-(5-hydroxy-2-methylphenyl)-3,7,7-trimethyl-7,8-dihydro-5H-pyrano[4,3-b]pyridin-2-yl)-2,6-diazaspiro[3.4]octan-2-yl)-2-propen-1-one]	–	215
C=CC(=O)N1CC2(CCN(c3nc4c(c(-c5ccc(F)c(O)c5)c3C#N)C[C@H]3C[C@@H]4C3(C)C)C2)C1 [Example 14-49, (1R,9R)-6-(4-fluoro-3-hydroxyphenyl)-10,10-dimethyl-4-(2-(2-propenoyl)-2,6-diazaspiro[3.4]octan-6-yl)-3-azatricyclo[7.1.1.0^2,7]undeca-2,4,6-triene-5-carbonitrile]	–	776
C=CC(=O)N1CC2(CCN(c3nc4c(c(-c5cc(O)ccc5C)c3F)COC(C)(C)C4)C2)C1 [Example 14-53, 1-(6-(3-fluoro-4-(5-hydroxy-2-methylphenyl)-7,7-dimethyl-7,8-dihydro-5H-pyrano[4,3-b]pyridin-2-yl)-2,6-diazaspiro[3.4]octan-2-yl)-2-propen-1-one]	–	360
C=CC(=O)N1CC2(CCN(c3nc4c(c(-c5c(C)c(Cl)cc6cnn(C)c56)c3F)COC(C)(C)C4)C2)C1 [Example 14-55, 1-(6-(4-(5-chloro-1,6-dimethyl-1H-indazol-7-yl)-3-fluoro-7,7-dimethyl-7,8-dihydro-5H-pyrano[4,3-b]pyridin-2-yl)-2,6-diazaspiro[3.4]octan-2-yl)-2-propen-1-one]	–	209
C=CC(=O)N1CC2(CCN(c3nc4c(c(-c5cccc6cc(O)ccc56)c3F)COC(C)(C)C4)C2)C1 [Example 14-65, 1-(6-(3-fluoro-4-(6-hydroxy-1-naphthalenyl)-7,7-dimethyl-7,8-dihydro-5H-pyrano[4,3-b]pyridin-2-yl)-2,6-diazaspiro[3.4]octan-2-yl)-2-propen-1-one]	–	367
C=CC(=O)N1CC2(CCN(c3nc4c(c(-c5c(C)c(Cl)cc6cn[nH]c56)c3F)COC(C)(C)C4)C2)C1 [Example 14-85]	–	56
C=CC(=O)N1CC2(CCN(c3nc4ccccc4c(-c4c(C)c(Cl)cc5cnn(C)c45)c3C#N)C2)C1 [Example 14-90, 4-(5-chloro-1,6-dimethyl-1H-indazol-7-yl)-2-(2-(2-propenoyl)-2,6-diazaspiro[3.4]octan-6-yl)-3-quinolinecarbonitrile]	–	148
C=CC(=O)N1CC2(CCN(c3nc4c(c(-c5ccc(F)c6sc(N)c(C#N)c56)c3C)COC(C)(C)C4)C2)C1 [Example 14-106, 2-amino-7-fluoro-4-(3,7,7-trimethyl-2-(2-(2-propenoyl)-2,6-diazaspiro[3.4]octan-6-yl)-7,8-dihydro-5H-pyrano[4,3-b]pyridin-4-yl)-1-benzothiophene-3-carbonitrile]	–	46
C=CC(=O)N1CC2(CCN(c3nc4cc(-c5scnc5C)ccc4c(-c4ccccc4Cl)c3C)C2)C1 [Example 15-2, 1-(6-(4-(2-chlorophenyl)-3-methyl-7-(4-methyl-1,3-thiazol-5-yl)-2-quinolinyl)-2,6-diazaspiro[3.4]octan-2-yl)-2-propen-1-one]	–	478
C=CC(=O)N1CC2(CCN(c3nc4cc(-n5ccnc5C)ccc4c(-c4ccccc4Cl)c3C)C2)C1 [Example 15-4, 1-(6-(4-(2-chlorophenyl)-3-methyl-7-(2-methyl-1H-imidazol-1-yl)-2-quinolinyl)-2,6-diazaspiro[3.4]octan-2-yl)-2-propen-1-one]	–	280

More lines, now with the values ahead:

IC50 [1] [nM]	IC50 [nM]	SMILES
294	–	C=CC(=O)N1CC2(CCN(c3nc4c(c(-c5c(C)ccc6cnn(C)c56)c3C#N)COC(C3CC3)C4)C2)C1 [Example 13-111, (7R)-7-cyclopropyl-4-(1,6-dimethyl-1H-indazol-7-yl)-2-(2-(2-propenoyl)-2,6-diazaspiro[3.4]octan-6-yl)-7,8-dihydro-5H-pyrano[4,3-b]pyridine-3-carbonitrile|(7S)-7-cyclopropyl-4-(1,6-dimethyl-1H-indazol-7-yl)-2-(2-(2-propenoyl)-2,6-diazaspiro[3.4]octan-6-yl)-7,8-dihydro-5H-pyrano[4,3-b]pyridine-3-carbonitrile]
101	–	C=CC(=O)N1CC2(CCN(c3nc4c(c(-c5c(C)ccc6cnn(C)c56)c3C#N)[C@H]3C[C@@H](C4)C3)C2)C1 [Example 13-131, (1S,9S)-3-(1,6-dimethyl-1H-indazol-7-yl)-5-(2-(2-propenoyl)-2,6-diazaspiro[3.4]octan-6-yl)-6-azatricyclo[7.1.1.0^2,7]undeca-2,4,6-triene-4-carbonitrile]
641	–	C=CC(=O)N1CC2(CCN(c3nc4c(c(-c5c(C)ccc6cnn(C)c56)c3C#N)CNC(C)(C)C4)C2)C1 [Example 13-138, 4-(1,6-dimethyl-1H-indazol-7-yl)-7,7-dimethyl-2-(2-(2-propenoyl)-2,6-diazaspiro[3.4]octan-6-yl)-5,6,7,8-tetrahydro-1,6-naphthyridine-3-carbonitrile]
842	–	C=CC(=O)N1CC2(CCN(c3nc4c(c(-c5c(C)ccc6cnn(C)c56)c3C#N)CO[C@H](C)C4)C2)C1 [Example 13-141, (7)-2-(2-acryloyl-2,6-diazaspiro[3.4]octan-6-yl)-4-(1,6-dimethyl-1H-indazol-7-yl)-7-methyl-7,8-dihydro-5H-pyrano[4,3-b]pyridine-3-carbonitrile]
620	–	C=CC(=O)N1CC2(CCN(c3nc4c(c(-c5c(C)ccc6cnn(C)c56)c3C#N)CO[C@@H](C)C4)C2)C1 [Example 13-142, (7)-2-(2-acryloyl-2,6-diazaspiro[3.4]octan-6-yl)-4-(1,6-dimethyl-1H-indazol-7-yl)-7-methyl-7,8-dihydro-5H-pyrano[4,3-b]pyridine-3-carbonitrile]
–	226	[2H]C([2H])([2H])n1ncc2ccc(C)c(-c3c(C)c(N4CCC5(CN(C(=O)C=C)C5)C4)nc4c3COC(C)(C)C4)c21 [Example 14-36, 1-(6-(3,7,7-trimethyl-4-(6-methyl-1-(^2H3)methyl-1H-indazol-7-yl)-7,8-dihydro-5H-pyrano[4,3-b]pyridin-2-yl)-2,6-diazaspiro[3.4]octan-2-yl)-2-propen-1-one]
–	478	C=CC(=O)N1CC2(CCN(c3nc4c(c(-c5c(C)ccc6cnn(C)c56)c3C)COC(C)(C)C4)C2)C1 [Example 14-37, 1-(6-(4-(1,6-dimethyl-1H-indazol-7-yl)-3,7,7-trimethyl-7,8-dihydro-5H-pyrano[4,3-b]pyridin-2-yl)-2,6-diazaspiro[3.4]octan-2-yl)-2-propen-1-one]
–	349	C=CC(=O)N1CC2(CCN(c3nc4c(c(-c5c(C)ccc6cn[nH]c56)c3F)COC(C)(C)C4)C2)C1 [Example 14-54, 1-(6-(3-fluoro-7,7-dimethyl-4-(6-methyl-1H-indazol-7-yl)-7,8-dihydro-5H-pyrano[4,3-b]pyridin-2-yl)-2,6-diazaspiro[3.4]octan-2-yl)-2-propen-1-one]
–	781	C=CC(=O)N1CC2(CCN(c3nc4c(c(-c5c(C)ccc6cnn(C)c56)c3F)COC(C)(C)C4)C2)C1 [Example 14-71, 1-(6-(4-(1,6-dimethyl-1H-indazol-7-yl)-3-fluoro-7,7-dimethyl-7,8-dihydro-5H-pyrano[4,3-b]pyridin-2-yl)-2,6-diazaspiro[3.4]octan-2-yl)-2-propen-1-one]
–	432	C=CC(=O)N1CC2(CCN(c3nc4c(c(-c5c(C)ccc6cnn(C(F)F)c56)c3C#N)COC(C)(C)C4)C2)C1 [Example 14-83, 4-(1-(difluoromethyl)-6-methyl-1H-indazol-7-yl)-7,7-dimethyl-2-(2-(2-propenoyl)-2,6-diazaspiro[3.4]octan-6-yl)-7,8-dihydro-5H-pyrano[4,3-b]pyridine-3-carbonitrile]
